Laboratory results taken from ChEMBL document CHEMBL1932997, “Identification of oxazolidinediones and thiazolidinediones as potent 17β-hydroxysteroid dehydrogenase type 3 inhibitors” (Bioorg Med Chem Lett, 2012).
One block for each compound: values may come before it. Calls of active or inactive are those of the source. The calls are words filed in the database; no cut-off is given here.

Tests used:
[1] = target: T1, 17-beta-hydroxysteroid dehydrogenase type 3 (Homo sapiens, UniProt P37058); experiment: Inhibition of human 17beta-HSD3 expressed in HeLa cells assessed as conversion of 4-androstene-3,17-dione to testosterone; assay type: cell-based
T1 sequence (P37058 whole entry): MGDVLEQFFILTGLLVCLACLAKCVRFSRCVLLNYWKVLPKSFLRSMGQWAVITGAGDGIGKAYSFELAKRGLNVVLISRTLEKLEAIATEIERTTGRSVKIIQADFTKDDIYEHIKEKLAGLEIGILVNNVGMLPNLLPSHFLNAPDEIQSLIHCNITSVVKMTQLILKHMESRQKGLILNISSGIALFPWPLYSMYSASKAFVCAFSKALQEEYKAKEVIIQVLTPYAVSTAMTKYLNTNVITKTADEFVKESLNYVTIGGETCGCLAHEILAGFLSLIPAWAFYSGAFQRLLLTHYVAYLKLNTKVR

[2] = target: T1, 17-beta-hydroxysteroid dehydrogenase type 3; experiment: Inhibition of 17beta-HSD3 in human testes homogenate; assay type: tissue-based, Testis
[3] = target: T2, 17-beta-hydroxysteroid dehydrogenase type 3 (Mus musculus, UniProt P70385); experiment: Inhibition of 17beta-HSD3 in mouse testes homogenate; assay type: tissue-based, Testis
T2 sequence (P70385 whole entry): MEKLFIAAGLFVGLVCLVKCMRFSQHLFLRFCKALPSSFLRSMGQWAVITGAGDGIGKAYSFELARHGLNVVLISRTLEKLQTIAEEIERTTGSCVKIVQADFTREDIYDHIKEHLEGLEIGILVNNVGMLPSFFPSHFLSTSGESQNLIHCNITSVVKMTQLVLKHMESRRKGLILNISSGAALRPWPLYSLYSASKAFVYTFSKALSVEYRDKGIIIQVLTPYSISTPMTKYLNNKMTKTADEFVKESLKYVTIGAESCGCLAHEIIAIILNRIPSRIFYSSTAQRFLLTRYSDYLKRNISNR

[4] = Inhibition of 17beta-HSD3 in marmoset testes homogenate; assay type: tissue-based, Callitrichinae sp., Testis
[5] = target: T3, 17-beta-hydroxysteroid dehydrogenase type 1 (Homo sapiens) (UniProt P14061); experiment: Inhibition of 17beta-HSD1 expressed in HeLa cells assessed as conversion of estrone into estradiol; assay type: cell-based
T3 sequence (whole entry): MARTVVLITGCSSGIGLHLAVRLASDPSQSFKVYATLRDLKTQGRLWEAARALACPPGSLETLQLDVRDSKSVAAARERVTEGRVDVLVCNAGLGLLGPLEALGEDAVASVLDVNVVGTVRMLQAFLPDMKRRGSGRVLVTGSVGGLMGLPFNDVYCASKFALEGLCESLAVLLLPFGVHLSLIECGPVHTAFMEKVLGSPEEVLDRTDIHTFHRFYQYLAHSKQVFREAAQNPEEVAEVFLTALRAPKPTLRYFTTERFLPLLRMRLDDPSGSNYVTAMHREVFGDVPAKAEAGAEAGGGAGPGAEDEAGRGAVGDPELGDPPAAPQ

[6] = target: T4, 17-beta-hydroxysteroid dehydrogenase type 2 (Homo sapiens) (UniProt P37059); experiment: Inhibition of 17beta-HSD2 expressed in HeLa cells assessed as conversion of estrone into estradiol; assay type: cell-based
T4 sequence (whole entry): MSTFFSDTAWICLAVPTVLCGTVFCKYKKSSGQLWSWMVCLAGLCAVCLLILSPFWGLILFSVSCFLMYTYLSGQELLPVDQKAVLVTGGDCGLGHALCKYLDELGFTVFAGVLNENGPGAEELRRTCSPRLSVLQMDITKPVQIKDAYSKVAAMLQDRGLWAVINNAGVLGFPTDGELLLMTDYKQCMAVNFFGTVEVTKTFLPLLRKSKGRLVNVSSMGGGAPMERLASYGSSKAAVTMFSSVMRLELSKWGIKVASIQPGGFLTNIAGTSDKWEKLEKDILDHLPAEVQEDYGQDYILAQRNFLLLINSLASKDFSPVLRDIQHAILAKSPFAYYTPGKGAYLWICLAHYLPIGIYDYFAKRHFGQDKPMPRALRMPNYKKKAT

[7] = target: T5, Androgen receptor (Homo sapiens) (UniProt P10275); experiment: Agonist activity at androgen receptor by transcriptional reporter gene assay; assay type: functional
T5 sequence (whole entry): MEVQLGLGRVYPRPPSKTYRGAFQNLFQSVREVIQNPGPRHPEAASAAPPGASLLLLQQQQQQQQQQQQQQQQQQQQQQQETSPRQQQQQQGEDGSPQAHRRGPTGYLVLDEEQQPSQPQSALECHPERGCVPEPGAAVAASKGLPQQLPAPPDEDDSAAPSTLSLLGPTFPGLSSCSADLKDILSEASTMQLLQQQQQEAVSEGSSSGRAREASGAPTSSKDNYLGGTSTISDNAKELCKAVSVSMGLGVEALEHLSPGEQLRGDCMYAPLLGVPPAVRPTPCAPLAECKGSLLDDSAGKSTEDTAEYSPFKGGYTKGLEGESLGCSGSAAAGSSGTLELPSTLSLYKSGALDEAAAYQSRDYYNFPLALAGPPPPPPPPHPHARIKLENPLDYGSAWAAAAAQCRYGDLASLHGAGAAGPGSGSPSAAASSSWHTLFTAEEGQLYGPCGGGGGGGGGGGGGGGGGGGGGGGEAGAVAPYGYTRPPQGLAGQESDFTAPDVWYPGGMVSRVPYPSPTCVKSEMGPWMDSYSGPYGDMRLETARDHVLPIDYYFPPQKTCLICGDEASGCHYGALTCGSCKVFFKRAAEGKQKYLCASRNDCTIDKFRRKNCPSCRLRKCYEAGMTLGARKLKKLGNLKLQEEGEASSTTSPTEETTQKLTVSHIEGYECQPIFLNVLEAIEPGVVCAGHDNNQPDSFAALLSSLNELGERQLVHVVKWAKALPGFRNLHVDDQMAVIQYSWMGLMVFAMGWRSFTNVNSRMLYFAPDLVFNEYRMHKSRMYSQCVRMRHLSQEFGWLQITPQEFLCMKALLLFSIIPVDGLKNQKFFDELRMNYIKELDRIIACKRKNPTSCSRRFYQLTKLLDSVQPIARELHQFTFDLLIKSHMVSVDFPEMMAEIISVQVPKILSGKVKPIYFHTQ

[8] = target: T5, Androgen receptor (Homo sapiens); experiment: Antagonist activity at androgen receptor by transcriptional reporter gene assay; assay type: functional
[9] = target: T6, Estrogen receptor (Homo sapiens) (UniProt P03372); experiment: Agonist activity at ERalpha by transcriptional reporter gene assay; assay type: functional
T6 sequence (whole entry): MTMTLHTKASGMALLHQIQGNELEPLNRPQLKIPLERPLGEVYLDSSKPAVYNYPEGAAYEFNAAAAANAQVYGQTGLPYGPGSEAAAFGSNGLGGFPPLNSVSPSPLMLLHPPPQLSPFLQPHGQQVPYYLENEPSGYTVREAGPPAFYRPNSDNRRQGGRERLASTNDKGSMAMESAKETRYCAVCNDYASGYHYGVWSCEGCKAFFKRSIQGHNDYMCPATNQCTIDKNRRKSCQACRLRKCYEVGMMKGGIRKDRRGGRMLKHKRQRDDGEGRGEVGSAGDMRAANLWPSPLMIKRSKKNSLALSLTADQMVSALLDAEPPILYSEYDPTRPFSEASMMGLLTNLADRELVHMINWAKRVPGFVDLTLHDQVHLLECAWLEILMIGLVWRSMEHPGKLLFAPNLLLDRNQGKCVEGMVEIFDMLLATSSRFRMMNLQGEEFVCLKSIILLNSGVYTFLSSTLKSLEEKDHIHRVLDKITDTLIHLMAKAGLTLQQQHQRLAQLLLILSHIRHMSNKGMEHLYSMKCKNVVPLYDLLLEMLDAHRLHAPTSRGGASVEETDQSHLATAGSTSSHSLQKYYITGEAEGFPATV

[10] = target: T6, Estrogen receptor (Homo sapiens); experiment: Antagonist activity at ERalpha by transcriptional reporter gene assay; assay type: functional
[11] = target: T7, Glucocorticoid receptor (Homo sapiens) (UniProt P04150); experiment: Agonist activity at glucocorticoid receptor by transcriptional reporter gene assay; assay type: functional
T7 sequence (whole entry): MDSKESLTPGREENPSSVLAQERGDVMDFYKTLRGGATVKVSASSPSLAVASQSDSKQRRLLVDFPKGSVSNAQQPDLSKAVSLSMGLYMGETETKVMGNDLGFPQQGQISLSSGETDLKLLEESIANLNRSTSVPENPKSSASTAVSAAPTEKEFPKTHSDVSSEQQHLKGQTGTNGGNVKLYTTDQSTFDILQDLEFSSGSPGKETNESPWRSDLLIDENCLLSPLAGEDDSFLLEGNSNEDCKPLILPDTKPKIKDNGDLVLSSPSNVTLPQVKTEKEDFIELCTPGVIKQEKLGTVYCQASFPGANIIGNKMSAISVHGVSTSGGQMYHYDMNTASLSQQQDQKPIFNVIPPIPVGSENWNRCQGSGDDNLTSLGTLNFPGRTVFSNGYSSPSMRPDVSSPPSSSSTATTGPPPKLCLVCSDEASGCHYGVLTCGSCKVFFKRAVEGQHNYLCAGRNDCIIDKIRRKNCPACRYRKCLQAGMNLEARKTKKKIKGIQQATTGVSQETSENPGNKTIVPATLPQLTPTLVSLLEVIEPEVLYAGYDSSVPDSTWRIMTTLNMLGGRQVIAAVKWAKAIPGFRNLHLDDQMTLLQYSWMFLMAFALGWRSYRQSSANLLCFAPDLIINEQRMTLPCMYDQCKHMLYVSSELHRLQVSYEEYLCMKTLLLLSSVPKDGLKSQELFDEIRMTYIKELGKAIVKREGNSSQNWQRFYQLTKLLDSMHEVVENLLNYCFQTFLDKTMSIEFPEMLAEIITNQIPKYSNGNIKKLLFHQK

[12] = target: T7, Glucocorticoid receptor (Homo sapiens); experiment: Antagonist activity at glucocorticoid receptor by transcriptional reporter gene assay; assay type: functional
[13] = target: T8, 17-beta-hydroxysteroid dehydrogenase type 3 (Homo sapiens) (UniProt P37058); conditions: HeLa, 10 uM
T8 sequence (whole entry): T1 sequence (P37058 whole entry)
Description: Inhibition of human 17beta-HSD3 activity expressed in HeLa cells assessed as conversion of 4-androstene-3,17-dione to testosterone at 10 uM

SMILES: COc1ccc(N2C(=O)/C(=C/c3ccc(O)c(Br)c3)N(C)C2=O)cc1
IC50 ([1]; hela): Not Active

SMILES: COc1ccc(N2C(=O)N/C(=C\c3ccc(O)c(Br)c3)C2=O)cc1
IC50 ([1]; hela): Not Active

SMILES: COc1ccc(-n2cc(Cc3ccc(O)c(Br)c3)sc2=O)cc1
IC50 ([1]; read-out: IC50): 570 nM

SMILES: COc1ccc(-n2cnn(Cc3ccc(O)c(Br)c3)c2=O)cc1
IC50 ([1]; read-out: IC50): 5700 nM

SMILES: COc1ccc(N2C/C(=C/c3ccc(O)c(Br)c3)OC2=O)cc1
IC50 ([1]; read-out: IC50): 670 nM

SMILES: COc1ccc(N2C(=O)S/C(=C\c3ccc(O)c(Br)c3)C2=O)cc1
IC50 ([1]; read-out: IC50): 90 nM

SMILES: COc1ccc(N2C(=O)OC(Cc3ccc(O)c(Br)c3)C2=O)cc1 (configuration not stated)
IC50 ([1]; read-out: IC50): 300 nM

More lines, in order of falling IC50 ([1]; read-out: IC50), values ahead:

IC50 ([1]; read-out: IC50): 23 nM
SMILES: COc1ccc(N2C(=O)O/C(=C\c3ccc(O)c(Br)c3)C2=O)cc1

IC50 ([1]; read-out: IC50): 14 nM | IC50 [2]: 6 nM | IC50 [3]: 40 nM | IC50 [4]: 0.6 nM | inhibition [5]: inactive | inhibition [6]: inactive | Activity [7]: inactive | Activity [8]: inactive | Activity [9]: inactive | Activity [10]: inactive | Activity [11]: inactive | Activity [12]: inactive | inhibition [13]: 23%
SMILES: COc1ccc(N2C(=O)/C(=C/c3ccc(O)c(Br)c3)SC2=S)cc1

IC50 ([1]; read-out: IC50): 13 nM
SMILES: COc1ccc(N2C(=O)/C(=C/c3ccc(O)c(Br)c3)OC2=S)cc1
